Drawing on ChEMBL document CHEMBL1201862, “PubChem BioAssay data set” (2004), this text covers IC50, EC50 and AC50 for ten molecules.

In experiment [1] the target is Nonstructural protein 1 (Influenza A virus, UniProt Q194T2). Type of experiment: functional, Influenza A virus (A/California/07/2009(H1N1)).
For experiment [2], the target named is T1, Insulin-degrading enzyme (Homo sapiens, UniProt P14735).
T1 sequence (P14735 whole entry): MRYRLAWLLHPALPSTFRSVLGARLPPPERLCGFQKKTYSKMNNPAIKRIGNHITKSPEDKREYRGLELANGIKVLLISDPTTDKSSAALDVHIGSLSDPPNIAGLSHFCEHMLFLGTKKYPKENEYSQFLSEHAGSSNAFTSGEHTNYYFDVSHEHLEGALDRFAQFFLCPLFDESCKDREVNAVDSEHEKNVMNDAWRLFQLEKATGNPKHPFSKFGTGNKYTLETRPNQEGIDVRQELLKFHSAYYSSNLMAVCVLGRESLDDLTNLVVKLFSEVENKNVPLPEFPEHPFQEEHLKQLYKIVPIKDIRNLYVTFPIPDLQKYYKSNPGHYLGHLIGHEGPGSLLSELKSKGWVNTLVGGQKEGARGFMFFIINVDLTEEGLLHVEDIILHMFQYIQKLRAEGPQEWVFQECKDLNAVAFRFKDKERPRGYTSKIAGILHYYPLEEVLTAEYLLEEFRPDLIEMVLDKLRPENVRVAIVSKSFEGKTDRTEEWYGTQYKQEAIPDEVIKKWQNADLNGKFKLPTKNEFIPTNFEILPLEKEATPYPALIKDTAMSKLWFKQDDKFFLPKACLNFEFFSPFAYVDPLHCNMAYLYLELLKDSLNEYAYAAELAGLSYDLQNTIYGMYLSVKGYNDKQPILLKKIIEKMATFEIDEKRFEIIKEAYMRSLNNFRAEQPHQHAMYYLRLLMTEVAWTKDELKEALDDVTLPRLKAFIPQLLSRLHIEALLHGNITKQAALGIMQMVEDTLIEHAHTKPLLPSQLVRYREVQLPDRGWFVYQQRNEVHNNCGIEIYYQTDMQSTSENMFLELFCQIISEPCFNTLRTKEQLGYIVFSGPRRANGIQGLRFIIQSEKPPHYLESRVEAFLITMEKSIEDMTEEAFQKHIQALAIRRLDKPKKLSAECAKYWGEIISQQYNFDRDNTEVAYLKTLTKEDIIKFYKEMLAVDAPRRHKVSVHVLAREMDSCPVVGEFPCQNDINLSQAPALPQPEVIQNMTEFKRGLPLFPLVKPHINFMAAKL
As to the kind of experiment: recombinant IDE activation, cell-free – biochemical, fluorescence polarization, counter-screen for IDE activator project, dose response (AID 588681).

The target in experiment [3] is T1, Insulin-degrading enzyme. The experiment is described as follows: cellular IDE activation of Abeta substrate cleavage – fluorescence polarization, HEK cells, dose response (AID 588439). It is filed as functional, cell-based.
The subject of experiment [4] is HEK293. As to the kind of experiment: membrane integrity loss in HEK cells – cell-based, fluorescence, cytotoxicity control for IDE activator project, dose response (AID 588440).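 Note: cytotoxicity by LDH release measuring loss of membrane integrity.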 Type of experiment: functional. The following applies: Homo sapiens.
Experiment [5] has as its system HEK293. The experiment is described as follows: optical interference in Abeta FP readout, dose response, artefact control for IDE activator project, biochemical, fluorescence polarization (AID 588442). It is filed as functional, cell-based. The conditions noted are these: Homo sapiens.
Experiment [6] can be described thus: Luminescence Cell-Based Dose Retest to Confirm Inhibitors of Cancer Stem Cells. [Related pubchem assays (depositor defined):AID2717, AID2721]. Type of experiment: functional. The following applies: Homo sapiens.
For experiment [7], the target named is T2, Corticotropin-releasing factor receptor 2/Corticotropin-releasing factor-binding protein (Homo sapiens, UniProt P24387+Q13324).
T2 sequence (Q13324 whole entry): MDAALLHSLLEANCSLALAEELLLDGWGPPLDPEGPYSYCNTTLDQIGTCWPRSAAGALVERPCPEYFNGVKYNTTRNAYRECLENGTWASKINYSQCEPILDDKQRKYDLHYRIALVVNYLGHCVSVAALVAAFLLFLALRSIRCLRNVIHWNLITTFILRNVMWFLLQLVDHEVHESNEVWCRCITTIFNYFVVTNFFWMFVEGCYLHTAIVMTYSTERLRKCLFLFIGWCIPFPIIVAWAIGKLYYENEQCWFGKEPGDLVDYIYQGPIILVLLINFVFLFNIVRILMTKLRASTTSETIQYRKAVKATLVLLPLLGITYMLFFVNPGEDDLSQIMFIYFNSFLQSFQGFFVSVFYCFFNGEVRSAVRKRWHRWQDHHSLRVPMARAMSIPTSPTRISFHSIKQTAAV
T2 sequence (P24387 whole entry): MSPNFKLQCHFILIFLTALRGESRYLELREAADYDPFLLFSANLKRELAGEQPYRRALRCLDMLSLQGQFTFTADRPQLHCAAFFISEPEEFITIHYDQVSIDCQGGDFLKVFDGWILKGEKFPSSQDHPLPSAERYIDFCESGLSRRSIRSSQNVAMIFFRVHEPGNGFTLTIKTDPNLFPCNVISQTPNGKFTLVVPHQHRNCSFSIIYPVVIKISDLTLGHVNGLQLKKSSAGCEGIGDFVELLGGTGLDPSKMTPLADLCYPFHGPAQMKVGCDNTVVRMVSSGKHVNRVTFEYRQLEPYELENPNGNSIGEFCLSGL
As to the kind of experiment: Dose Response confirmation of uHTS hits for small molecule antagonists of the CRF-binding protein and CRF-R2 receptor complex. Type of experiment: functional. The conditions noted are these: read-out: IC50_Mean.

Experiment [8] addresses T2, Corticotropin-releasing factor receptor 2/Corticotropin-releasing factor-binding protein. As to the kind of experiment: activators of CRF receptor 2 with binding protein – uHTS hits, confirmation (AID 602473). It is filed as functional. The conditions noted are these: read-out: EC50_Mean.
Experiment [9] in a line: blockers of CRF-binding protein–CRF-R2 complex – cell-based, uHTS hits, 384-well, dose response (AID 651639). It is filed as functional, Homo sapiens. The conditions noted are these: read-out: IC50_Mean.
Experiment [10] in a line: activation of miR-122 Renilla sensor silencing – cell-based, Huh7 psiCHECK-miR122, Renilla luciferase, cherry-picked, dose response (AID 651956).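 Note: huh7 hepatoma cells stably carrying a psiCHECK-2 miR-122 sensor plasmid; renilla luciferase signal reporting endogenous miR-122 activity after 48 h compound exposure.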 Type of experiment: functional.
Experiment [11] deals with T3, Aryl hydrocarbon receptor (Homo sapiens, UniProt P35869).
T3 sequence (P35869 whole entry): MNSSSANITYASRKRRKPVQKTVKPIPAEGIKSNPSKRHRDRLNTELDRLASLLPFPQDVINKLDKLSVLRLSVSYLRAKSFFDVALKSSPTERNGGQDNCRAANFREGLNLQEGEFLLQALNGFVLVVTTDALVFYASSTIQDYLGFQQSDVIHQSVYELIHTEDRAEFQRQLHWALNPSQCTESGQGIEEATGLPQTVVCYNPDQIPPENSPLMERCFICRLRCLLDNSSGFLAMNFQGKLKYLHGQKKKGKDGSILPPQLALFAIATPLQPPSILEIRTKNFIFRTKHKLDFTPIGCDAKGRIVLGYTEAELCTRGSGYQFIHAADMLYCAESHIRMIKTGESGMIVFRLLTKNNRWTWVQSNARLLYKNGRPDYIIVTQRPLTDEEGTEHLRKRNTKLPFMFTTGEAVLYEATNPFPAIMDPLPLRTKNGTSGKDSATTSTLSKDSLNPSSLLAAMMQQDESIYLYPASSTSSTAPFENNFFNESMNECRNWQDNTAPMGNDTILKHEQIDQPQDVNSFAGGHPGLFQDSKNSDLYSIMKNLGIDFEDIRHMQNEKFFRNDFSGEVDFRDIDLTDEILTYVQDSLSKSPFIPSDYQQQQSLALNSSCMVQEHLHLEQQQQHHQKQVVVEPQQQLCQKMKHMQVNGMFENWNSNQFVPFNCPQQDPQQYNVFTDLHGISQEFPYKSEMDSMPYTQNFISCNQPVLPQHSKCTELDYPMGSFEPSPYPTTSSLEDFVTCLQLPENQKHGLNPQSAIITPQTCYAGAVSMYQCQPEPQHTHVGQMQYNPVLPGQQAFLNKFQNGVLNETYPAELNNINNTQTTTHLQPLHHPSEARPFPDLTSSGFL
The conditions noted are these: Potency.

Experiment [12] has as its target T4, RNA-binding protein pos-1 (Caenorhabditis elegans, UniProt G5EF15).
T4 sequence (G5EF15 whole entry): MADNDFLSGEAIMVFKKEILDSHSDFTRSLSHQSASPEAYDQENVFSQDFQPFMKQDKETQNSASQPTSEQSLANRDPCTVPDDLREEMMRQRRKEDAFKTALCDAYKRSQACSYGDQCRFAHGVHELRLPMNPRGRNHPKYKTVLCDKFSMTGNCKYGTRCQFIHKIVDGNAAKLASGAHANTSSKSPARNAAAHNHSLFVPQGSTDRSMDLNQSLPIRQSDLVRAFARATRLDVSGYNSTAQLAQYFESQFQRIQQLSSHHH
As to the kind of experiment: disruptors of C. elegans POS-1 RNA interaction – biochemical, fluorescence polarization, dose response (AID 1964).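 Note: purified POS-1 fused to maltose binding protein made in E. coli; potency of compounds blocking POS-1 binding to fluorescent RNA.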

In experiment [13] the target is T5, Zinc finger protein mex-5 (Caenorhabditis elegans, UniProt Q9XUB2).
T5 sequence (Q9XUB2 whole entry): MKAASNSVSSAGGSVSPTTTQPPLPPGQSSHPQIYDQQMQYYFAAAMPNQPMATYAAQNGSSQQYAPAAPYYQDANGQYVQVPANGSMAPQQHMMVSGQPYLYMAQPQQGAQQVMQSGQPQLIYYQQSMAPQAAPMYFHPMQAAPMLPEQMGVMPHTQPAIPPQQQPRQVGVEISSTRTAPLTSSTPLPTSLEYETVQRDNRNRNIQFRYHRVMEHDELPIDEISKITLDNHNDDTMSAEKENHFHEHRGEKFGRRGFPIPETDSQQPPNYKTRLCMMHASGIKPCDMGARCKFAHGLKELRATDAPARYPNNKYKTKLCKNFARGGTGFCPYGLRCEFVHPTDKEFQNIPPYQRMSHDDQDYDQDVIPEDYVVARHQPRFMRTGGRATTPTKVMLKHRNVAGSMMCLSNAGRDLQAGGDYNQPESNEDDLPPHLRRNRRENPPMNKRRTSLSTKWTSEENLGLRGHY
The experiment is described as follows: potency of MEX-5 RNA-binding blockers – biochemical, C. elegans, fluorescence polarization, dose response (AID 1960).

Experiment [14] concerns the target T6, Endoribonuclease toxin MazF (Escherichia coli K-12, UniProt P0AE70).
T6 sequence (P0AE70 whole entry): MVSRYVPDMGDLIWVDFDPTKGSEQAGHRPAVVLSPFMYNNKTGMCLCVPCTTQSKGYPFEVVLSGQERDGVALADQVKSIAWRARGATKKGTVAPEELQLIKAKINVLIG
As to the kind of experiment: activation of MazEF endoribonuclease cleavage – biochemical, fluorescence, single-stranded RNA substrate, uHTS hits, dose response (AID 588481). Type of experiment: functional.

The target of experiment [15] is T6, Endoribonuclease toxin MazF. The experiment is described as follows: substrate-only fluorescence increase artefacts – biochemical, single-stranded RNase substrate, counter-screen for MazEF activator project, dose response (AID 588502). It is filed as functional.
Experiment [16] has as its target T7, Low molecular weight phosphotyrosine protein phosphatase (Homo sapiens, UniProt P24666).
T7 sequence (P24666 whole entry): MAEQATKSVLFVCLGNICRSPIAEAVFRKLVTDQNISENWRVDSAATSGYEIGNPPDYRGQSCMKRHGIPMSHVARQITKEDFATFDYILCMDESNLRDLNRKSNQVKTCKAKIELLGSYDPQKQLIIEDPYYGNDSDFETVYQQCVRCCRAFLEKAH
It is filed as functional. The conditions noted are these: read-out: IC50_Mean.

Experiment [17] deals with T7, Low molecular weight phosphotyrosine protein phosphatase. It is filed as functional. The following applies: read-out: IC50_Mean. The source holds these as a separate data set.
Experiment [18] in a line: bead-based luminescence quenchers, dual-tagged ARNT – biochemical, AlphaScreen, cherry-pick, artefact control for ARNT-TACC3 interaction inhibitor project, dose response (AID 651705).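 Note: AlphaScreen bead proximity signal that flags compounds interfering with the detection technology; potency reflects signal decrease which marks the compound as an assay artifact.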 It is filed as functional.
Experiment [19] concerns the target Cytochrome P450 2D6 (Homo sapiens, UniProt P10635).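 Note: CYP2D6 member of a cytochrome P450 panel assay.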

The source made the active and inactive calls.

Nonstructural protein 1, sequence (Q194T2 whole entry): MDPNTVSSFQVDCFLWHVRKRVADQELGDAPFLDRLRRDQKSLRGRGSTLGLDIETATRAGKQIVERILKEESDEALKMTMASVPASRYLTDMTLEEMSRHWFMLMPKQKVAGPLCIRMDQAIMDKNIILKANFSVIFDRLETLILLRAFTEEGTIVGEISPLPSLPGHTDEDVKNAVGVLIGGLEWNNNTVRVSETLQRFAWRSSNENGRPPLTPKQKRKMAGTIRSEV
Cytochrome P450 2D6, sequence (P10635 whole entry): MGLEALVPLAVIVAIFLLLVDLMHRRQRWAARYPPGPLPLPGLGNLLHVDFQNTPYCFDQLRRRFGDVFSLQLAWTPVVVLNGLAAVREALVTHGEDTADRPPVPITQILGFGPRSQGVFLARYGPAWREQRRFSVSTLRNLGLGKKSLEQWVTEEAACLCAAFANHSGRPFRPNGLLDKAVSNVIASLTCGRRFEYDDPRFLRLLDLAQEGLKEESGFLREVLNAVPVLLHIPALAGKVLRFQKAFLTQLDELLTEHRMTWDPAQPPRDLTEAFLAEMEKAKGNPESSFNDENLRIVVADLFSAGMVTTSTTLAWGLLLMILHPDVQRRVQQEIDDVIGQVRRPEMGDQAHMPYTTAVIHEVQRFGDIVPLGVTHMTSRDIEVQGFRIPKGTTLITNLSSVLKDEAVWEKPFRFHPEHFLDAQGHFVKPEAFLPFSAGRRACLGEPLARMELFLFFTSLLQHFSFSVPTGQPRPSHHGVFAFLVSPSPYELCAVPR

For the molecule `O=C(O)c1ccc(N=Nc2c(O)ccc3ncccc23)cc1`, the IC50 in experiment [1] is 3.07 µM (active); in experiment [4] it was > 89.2 µM (inactive). Also, the results for the EC50 in experiment [2], in experiment [3] and in experiment [5] were 6.69 µM (active), 7.38 µM (active) and 30.9 µM (inactive), respectively.
In the case of `CCN(c1ccccc1)c1nc(C#N)nc(N(CC)c2ccccc2)n1`, in [6], the AC50 was 3.66 µM (active). Further, the IC50 in [7] is 0.723 µM (active); in [9], 6 µM (active). The EC50 in experiment [8] was > 53 µM (inactive).
For the molecule `O=C(C1CCOCC1)N1[C@H](CO)[C@H]2c3ccccc3NC[C@H]21`, the AC50 in experiment [10] was 30 µM (active).
Take `CCOP(=S)(OCC)Oc1ccc2c(C)c(Cl)c(=O)oc2c1` [COUMAPHOS]: the AC50 in experiment [11] was 0.178 µM (inconclusive).
With `C=CCN1C(=O)/C(=C2/Sc3ccc(OC)cc3N2CC)SC1=S`, the EC50 in experiment [12] was > 300 µM (inconclusive); in [13], > 300 µM (not active); in experiment [14] it was > 99 µM (inactive); in [15], > 99 µM (inactive); in [8], > 53 µM (inactive).
Regarding `O=C(OCCNc1nc(-c2ccccc2)nc2ccccc12)c1cccnc1`, the IC50 in experiment [16] is 23.1 µM (inactive); in experiment [17], 7.51 µM (active).
Consider `Cc1ccc(-c2cnc3c(c2)C(=O)N([C@H](C)CO)C[C@@H](C)[C@H](CN(C)CC2CCCCC2)O3)cc1`, for which the half-maximal activity concentration (AC50) in [10] was 18.3 µM (active).
Regarding `C1=C/CC/C=C/CC/C=C/CC/1`, the half-maximal activity concentration (AC50) in [11] was 44.7 µM (inconclusive).
In the case of `Cc1cccc(C(=O)Nc2nnc(C3=COCCO3)o2)c1`, the AC50 in [18] is 128 µM (active).
As to `Cc1c(CCO)c(=O)n(-c2ccccc2)n1S(=O)(=O)c1c(Cl)cc(Cl)cc1Cl`, the results for the AC50 in experiment [18] and in experiment [19] were 76.8 µM (active) and 7.94 µM (inconclusive), respectively.
